Assay results taken from patent US20110281922A1, “AMIDE THIAZOLE DERIVATIVE, PREPARATION METHOD AND USES THEREOF” (TIANJIN INSTITUTE OF PHARMACEUTICAL RESEARCH, priority 2008, published 2011).
Counter-ions that a name gives are not always drawn.

Tested on: ICR mice
Test: Glucose tolerance in fasted ICR mice: serum glucose by glucose-oxidase method after intraperitoneal glucose load
Assay type: in vivo
Conditions: dose 100 mg/kg; for 0.5 h blood sugar: serum glucose 0.5 h after modeling (2 g/kg glucose i.p. 2 h after administration; 1.5 h for diamicron); for 1 h blood sugar: serum glucose 1 h after modeling (2 g/kg glucose i.p. 2 h after administration; 1.5 h for diamicron); for 2 h blood sugar: serum glucose 2 h after modeling (2 g/kg glucose i.p. 2 h after administration; 1.5 h for diamicron); for 3 h blood sugar: serum glucose 3 h after modeling (2 g/kg glucose i.p. 2 h after administration; 1.5 h for diamicron); for 4 h blood sugar: serum glucose 4 h after modeling (2 g/kg glucose i.p. 2 h after administration; 1.5 h for diamicron)
Description: 1% sodium carboxymethyl cellulose is used to formulate the sample to a suspension with the concentration of 5 mg/mL, the administration amount is 0.4 mL/20 g body weight, which is corresponding to 100 mg/kg dosage.
The health ICR mice with 20-24 g of body weight fulfill the primary standard, and the male and female of them are in equal. The animals are fasted for 16 hours, and 2 g/kg of glucose-saline solution is injected intraperitoneally at 2 h after administration (glucose is injected at 1.5 h after administration of diamicron). The blood is regularly collected from the post-glomus venous plexus in mice with capillary at 0.5 h, 1 h, 2 h, 3 h, and 4 h after modeling, centrifuged to separate the blood serum, and the content of serum glucose is measured at each of the time-point by glucose-oxidase method.

SMILES	0.5 h blood sugar [mg/dL]	1 h blood sugar [mg/dL]	2 h blood sugar [mg/dL]	3 h blood sugar [mg/dL]	4 h blood sugar [mg/dL]
O=C(CNCc1ccccc1)Nc1nccs1 [Compound I-1, 2-{2-[(benzyl)amino]acetyl}amino thiazole]	266.4 ± 56.9	182.3 ± 57.6	88.2 ± 17.6	60.0 ± 15.6	52.3 ± 28.1
O=C(CNCc1ccccc1Cl)Nc1nc(Br)cs1 [Compound I-2, 4-bromo-2-{2-[(2-chlorobenzyl)amino]acetyl}amino thiazole]	199.2 ± 37.6	153.3 ± 62.7	93.3 ± 48.7	58.2 ± 29.0	60.0 ± 18.2
Cc1csc(NC(=O)CNCc2cccs2)n1 [Compound I-6, 4-methyl-2-{2-[(thienyl-2-methyl)amino]acetyl}amino thiazole]	240.1 ± 41.1	186.8 ± 45.9	113.6 ± 30.9	76.6 ± 48.4	88.0 ± 20.1
O=C(CNCc1sccc1Br)Nc1nc(Br)cs1 [Compound I-7, 4-bromo-2-{2-[(3-bromothienyl-2-methyl)amino]acetyl}amino thiazole]	186.0 ± 67.8	130.2 ± 37.7	100.9 ± 29.6	83.3 ± 91.8	72.1 ± 29.7
COC(=O)c1csc(NC(=O)CNCc2scc(C)c2Br)n1 [Compound I-8, 2-{2-[(3-bromo-4-methylthienyl-2-methyl)amino]acetyl}amino thiazole-4-methyl formate]	162.5 ± 20.6	102.0 ± 30.5	98.7 ± 20.5	62.5 ± 15.3	50.6 ± 18.9
Cl.O=C(CNCc1ccccc1Cl)Nc1nc(Br)cs1 [Compound I-13, 4-bromo-2-{2-[(2-chlorobenzyl)amino]acetyl}amino thiazole hydrochloride]	195.6 ± 78.1	166.5 ± 44.2	99.3 ± 20.9	68.1 ± 21.5	59.2 ± 18.3
Cc1csc(NC(=O)CNCc2cccs2)n1.Cl [Compound I-14, 4-methyl-2-{2-[(thienyl-2-methyl)amino]acetyl}amino thiazole hydrochloride]	233.2 ± 18.1	176.2 ± 25.2	95.4 ± 46.9	65.3 ± 20.1	70.1 ± 15.3
Cl.O=C(CNCc1occc1[N+](=O)[O-])Nc1nc(Br)cs1 [Compound I-15, 4-bromo-2-{2-[(3-nitrylfuranyl-2-methyl)amino]acetyl}amino thiazole hydrochloride]	193.6 ± 76.4	161.5 ± 42.6	91.3 ± 20.0	64.1 ± 20.2	55.1 ± 14.2
Cc1ccc(S(=O)(=O)NC(=O)NN2CC3CCCC3C2)cc1 (stereo not drawn) [diamicron, reference compound]	211.0 ± 91.3	140.3 ± 74.4	103.4 ± 31.7	77.2 ± 25.8	62.3 ± 22.3
